In patent US10174065B2, “Antidiabetic enolic glucoside of phenylpyruvic acid” (ZADEC APS, priority 2010, dated 2019):

Legend:
Chang cells = assay: 2-deoxy-[3H]-D-glucose uptake assay; type: cell-based; conditions: Chang cell cultures, 3 hrs exposure
Protocol: The glucose uptake of RX-1 and selected analogues after administration of test compounds to Chang cell cultures were determined in an operating protocol for the 2-deoxy-[^3H]-D-glucose. The protocol, which is described in more detail below, has been designed to test for the RX-1 (and RX-1 analogues) mediated glucose uptake. In Table the EC50 values for the uptake for RX-1 and representative analogues is shown.
Stock solutions of the RX-1 analogues supplied in cryo vials (DrugMode) was prepared by diluting the compound with […] sterile tissue culture grade water. This will yield a 5 mM stock solution. If the analogue […] an additional 50 μl methanol will be added (this will be recorded clearly on the log sheet). This will yield a 4 mM stock solution. Stock solutions will be kept on ice at all times and analogues will be stored in 20 μl aliquots at −80 C for subsequent use. Tubes that have been thawed will be clearly marked on the label.
RX-1 (10 μM) Positive Control Solution • To prepare a 10 μM RX-1 solution as positive control. Add 30 μl to 2970 μl modified DMEM media supplemented with 8 mM glucose.
RX-1 Analogue (31.6 μM) Test Solutions • To prepare a 31.6 μM RX-1 analogue test solution. Add 19 μl of the 5 mM to 2981 μl modified DMEM media supplemented with 8 mM glucose. To prepare a 31.6 μM RX-1 analogue test solution from a 4 mM stock solution, add 24 μl to 2976 μl modified DMEM media supplemented with 8 mM glucose.
Cell Seeding in 24-Well Plates • Chang cells are cultured according to procedures described in MRC cell culture SOPs: TC-B2a Thawing of cells and TC-B1a Cell line maintenance—general principles. Make sure cells are in the log phase (i.e. <70% confluence) and less than 20 passages. • Harvest cells using 0.25% (w/v) Trypsin/0.53 mM EDTA solution. • Count cells and resuspend to 30 000 cells/ml (Chang cell seeding density for 24-well plate=30 000 cells/ml) in EMEM (with pyruvate and NEAA, but without L-glutamate (Lonza, USA) containing 10% FBS (Gibco, UK) and pipette 1 ml/well cell suspension to a 24-well plate corresponding to 30 000 cells/well.
• after 3 days of cell growth, aspirate medium • wash cells once with pre-warmed DPBS at 37° C. • add 500 μl of pre-warmed 37° C. DMEM/0.1% BSA (without phenol red, glucose and pyruvate) to serum starve cells to remove residual glucose and FBS • incubate at 37° C. in humidified air and 5% CO2 for 30 min • aspirate DMEM/0.1% BSA (without phenol red, glucose and pyruvate) • Prepare test dilutions as specified in the plate layout (see below) • add 500 μl pre-warmed 37° C. of test dilution per well according to plate layout • incubate at 37° C. in humidified air and 5% CO2 for 3 hrs • remove test medium and wash cells once with DPBS (37° C.) • add 250 μl of test medium containing 0.5 μCi/ml ^3H-2-DOG to each well use (0.5 μl ^3H to 1 ml medium) • Incubate cells at 37° C. in humidified air and 5% CO2 for 15 min • Aspirate medium • To stop the reaction, wash cells twice with ice-cold DPBS • Aspirate DPBS and ensure that wells are as dry as possible • Lyse cells by adding 1 ml of 0.3N NaOH/1% SDS and incubate at 37° C. for at least 45 min • Mix cell lysate thoroughly before subsequent use in LSC and Bradford protein determination

3T3-L1 adipocytes = assay: Glucose uptake in transformed 3T3-L1 adipocytes (colourometric glucose oxidase method); type: cell-based; conditions: for glucose uptake over a 3 hour culture period: 3T3-L1 adipose cells; for Glucose conc.: glucose remaining in the media after 3 hour exposure to the cells; for Glucose conc. / Glucose Uptake: media containing 8 mM glucose; for Glucose Uptake: glucose uptake from the media after 3 hour exposure; for % uptake: relative to DMSO vehicle = 100.00, 3 hour glucose uptake
Protocol: 3T3-L1 cells were transformed in culture using modified DMEM differentiation media supplemented with insulin, dexametasone and isobutylmethylxanthine and cultured for 3 days. The transformed 3T3-L1 adipocytes were then cultured for a further 5 days in modified DMEM supplemented with 10% FCS before being exposed to insulin, metformin and compounds of the present invention (see Table 1). Glucose uptake over a three (3) hour period was determined after the 5 days of treatment using a colourometric glucose oxidase method (Biovision Inc, USA).
The glucose concentration column represents the glucose concentration remaining in the media following three (3) hour exposure to the cells. The glucose uptake column represents glucose uptake from the media after a 3 hour exposure. SD represents the standard deviation. The percentage increases calculated from the relevant solvent vehicle and the P=values are reflected in the last two columns respectively.

Compound | EC50 (Chang cells) [µM] | glucose uptake over a 3 hour culture period (3T3-L1 adipocytes) | Glucose conc. (3T3-L1 adipocytes) [nM/ul] | Glucose Uptake (3T3-L1 adipocytes) [nM/ul] | % uptake (3T3-L1 adipocytes) [%]
O=C(O)/C(=C/c1ccccc1Cl)O[C@H]1O[C@@H](CO)[C@@H](O)[C@@H](O)[C@@H]1O [RX-21, (Z)-3-(2-Chlorophenyl)-2-(((2R,3S,4R,5S,6S)-3,4,5-tri hydroxy-6-(hydroxymethyl)tetrahydro-2H-pyran-2-yl)oxy)acrylic acid] | 286 |  |  |  | 
Cc1cccc(/C=C(\O[C@H]2O[C@@H](CO)[C@@H](O)[C@@H](O)[C@@H]2O)C(=O)O)c1 [RX-18, (Z)-3-(m-Tolyl)-2-(((2R,3S,4R,5S,6S)-3,4,5-trihydroxy-6-(hydroxymethyl)tetrahydro-2H-pyran-2-yl)oxy)acrylic acid] | 9.5 |  |  |  | 
O=C(O)/C(=C/c1ccccc1F)O[C@H]1O[C@@H](CO)[C@H](O)[C@@H](O)[C@@H]1O [RX-4, (Z)-3-(2-Fluorophenyl)-2-(((2R,3S,4R,5R,6S)-3,4,5-trihydroxy-6-(hydroxymethyl)tetrahydro-2H-pyran-2-yl)oxy)acrylic acid] | 80.8 |  |  |  | 
COC(=O)/C(=C/c1ccccc1)O[C@@H]1O[C@H](CO)[C@@H](O)[C@H](O)[C@H]1O [RX-1 acrylate, (Z)-Methyl 3-phenyl-2-((2S,3R,4S,5S,6R)-3,4,5-trihydroxy-6-(hydroxymethyl)tetra hydro-2H-pyran-2-yloxy)acrylate] |  | significantly increased | 2.82 | 3.16 | 135.53
Cc1cccc(/C=C(\O[C@H]2O[C@@H](CO)[C@H](O)[C@@H](O)[C@@H]2O)C(=O)O)c1 [RX-19, (Z)-3-(m-Tolyl)-2-(((2R,3S,4R,5R,6S)-3,4,5-trihydroxy-6-(hydroxymethyl)tetrahydro-2H-pyran-2-yl)oxy)acrylic acid] | 181 |  |  |  | 
O=C(O)/C(=C/c1cccc(F)c1)O[C@H]1O[C@@H](CO)[C@@H](O)[C@@H](O)[C@@H]1O [RX-5, (Z)-3-(3-Fluorophenyl)-2-(((2R,3S,4R,5S,6S)-3,4,5-trihydroxy-6-(hydroxymethyl)tetrahydro-2H-pyran-2-yl)oxy)acrylic acid] | 114 |  |  |  | 
COC(=O)/C(=C/c1ccccc1)O[C@@H]1O[C@H](COC(C)=O)[C@@H](OC(C)=O)[C@H](OC(C)=O)[C@H]1OC(C)=O [RX-1 triacetate, (2R,3R,4S,5R,6S)-2-(Acetoxymethyl)-6-((Z)-3-methoxy-3-oxo-1-phenylprop-1-en-2-yloxy)tetrahydro-2H-pyran-3,4,5-triyl triacetate] |  | significantly increased | 2.92 | 3.05 | 130.78
Insulin |  |  | 2.86 | 3.13 | 134.03
O=C(O)/C(=C/c1c(F)cccc1Cl)O[C@H]1O[C@@H](CO)[C@@H](O)[C@@H](O)[C@@H]1O [RX-16, (Z)-3-(2-Chloro-6-fluorophenyl)-2-(((2R,3S,4R,5S,6S)-3,4,5-trihydroxy-6-(hydroxymethyl)tetrahydro-2H-pyran-2-yl)oxy)acrylic acid] | 6.99 |  |  |  | 
O=C(O)/C(=C/c1cccc(C(F)(F)F)c1)O[C@H]1O[C@@H](CO)[C@H](O)[C@@H](O)[C@@H]1O [RX-20, (Z)-3-(3-(Trifluoromethyl)phenyl)-2-(((2R,3S,4R,5R,6S)-3,4,5-trihydroxy-6-(hydroxymethyl)tetrahydro-2H-pyran-2-yl)oxy)acrylic acid] | 5.7 |  |  |  | 
CN(C)C(=N)N=C(N)N [Metformin, reference compound] |  |  | 3.27 | 2.73 | 117.14
O=C(O)/C(=C/c1cccc(C(F)(F)F)c1)O[C@H]1O[C@@H](CO)[C@@H](O)[C@@H](O)[C@@H]1O [RX-10, (Z)-3-(3-(Trifluoromethyl)phenyl)-2-(((2R,3S,4R,5S,6S)-3,4,5-trihydroxy-6-(hydroxymethyl)tetrahydro-2H-pyran-2-yl)oxy)acrylic acid] | 105 |  |  |  | 
O=C(O)/C(=C/c1ccccc1[N+](=O)[O-])O[C@H]1O[C@@H](CO)[C@H](O)[C@@H](O)[C@@H]1O [RX-2, (Z)-3-(2-Nitrophenyl)-2-(((2R,3S,4R,5R,6S)-3,4,5-trihydroxy-6-(hydroxymethyl)tetrahydro-2H-pyran-2-yl)oxy)acrylic acid] | 9.35 |  |  |  | 
